This note sets out measurements from article PMC7352059 (Biotechnology Reports, 2020).

SMILES strings stand for the structures.

Common to all, as to assay: dopachrome formation, absorbance […] nm, non-linear regression
What all share (details): free enzyme; 0.05 M Na-phosphate pH 6.5; 1-30 mM L-DOPA

The subject of test [1] is tyrosinase from C. esculenta. In kind it is biochemical, Colocasia esculenta.
Test [2] has as its system tyrosinase from D. rotundata. In kind it is biochemical, Dioscorea cayenensis subsp. rotundata.
For test [3], the system named is tyrosinase from D. alata. In kind it is biochemical, Dioscorea alata.
The subject of test [4] is tyrosinase from D. praehensilis. In kind it is biochemical, Dioscorea praehensilis.

With `N[C@@H](Cc1ccc(O)c(O)c1)C(=O)O` [L-DOPA, 3,4-dihydroxyphenyl-L-alanine], the Km worked out at 23.7 ± 14 mM in test [1], 6.8 ± 2.6 mM in test [2], 20 ± 11 mM in test [3] and 9.6 ± 3.7 mM in test [4].
